# Data published in patent US20210346500A1, “PHOTOOXIDATIVE INACTIVATION OF PATHOGENS INCLUDING SARS-CoV-2” (laneg GmbH, priority 2020, published 2021).
# Entries after “also recorded” stand apart in the source; their conditions may differ.
# What was measured:
# Format in all cases: in vivo, human
# SARS CoV-2 = details: active treatment group, 4 weeks after photodynamic treatments; ELISA not specific for SARS CoV vs SARS CoV-2
# SARS-CoV-2 (COVID-19) = assay: Placebo-controlled clinical study of photodynamic treatment: course of disease and mortality in COVID-19 patients
# Protocol: The photosensitizer used was methylene blue as a 1% solution of methylthioninium-chloride dissolved in a 5% glucose solution. (Heltschl GmbH, Germany). The methylene blue solution was applied by flushing and gargling in the oral cavity and throat, and by spraying in the nasal cavity.
# (§1) The photodynamic excitation was performed using the Medlouxx PDT device, produced by laneg GmbH, Germany (www.medlouxx.com). The device applicator emits 660nm laser radiation with 240 mW power. The infected areas were irradiated for 5 minutes resulting in a dosage of about 72 J/cm2. This procedure: 1 min flushing followed by 5 minutes irradiation, was repeated 5 times, resulting in a total dosage of about 360 J/cm2. Before and immediately after the photodynamic treatments, the viral concentration was determined by PCR tests using the PCR real time testing facility ThermoFisher, QuantStudio 3.
# The placebo patients received exactly same treatment procedure except that all placebo patients were treated with covered radiation heads. The patients were not able to distinguish an active versus a placebo treatment due to the filter function of the laser safety goggles.
# (§2) We have treated 300 patients with the active treatment protocol and 300 patients with the placebo protocol described above. The active treatment group consisted of 164 men and 136 women, with an age range of 35-83 years. All patients signed informed consent prior to the start of the treatment protocol. The main inclusion citeria were fever, typical symptoms and a positive PCR test. The main exclusion criterium was a negative PCR test. Besides fever, we have found a significant variability in the initial presenting symptoms, like cough, loss of smell, loss of taste, headaches, fatigue and others.
# We have characterized the course of the disease by the degree and duration of fever which was the most prominent symptom (see Table 1): […]
# [1] = Treatment related adverse events in the clinical study; details: methylene blue + 660 nm irradiation, 300 patients
# Protocol: as §1, §2
# [2] = max fever 39.2° C., 3 weeks, methylene blue + 660 nm irradiation, 300 patients
# [3] = max fever 39.5° C., 4-6 weeks, methylene blue + 660 nm irradiation, 300 patients
# [4] = moderate = max fever 38.7° C., 2 weeks, methylene blue + 660 nm irradiation, 300 patients
structure (smiles),measurement,setting,value
"CN(C)c1ccc2nc3ccc(=[N+](C)C)cc-3sc2c1 [methylene blue, methylthioninium-chloride]",Patients with presence of antibodies (ELISA),SARS CoV-2,96%
same,Mortality Rate - Active Treatment Group,"SARS-CoV-2 (COVID-19); 300 patients, methylene blue + 660 nm irradiation",0.7%
same,"Disease course Severe (Hospital Admission), Active Treatment Number",SARS-CoV-2 (COVID-19); [2],6 patients
same,"Disease course Severe (Hospital Admission), Active Treatment Percentage",SARS-CoV-2 (COVID-19); [2],2%
same,"Disease course Severe (Hospital/ICU Admission), Active Treatment Number",SARS-CoV-2 (COVID-19); [3],2 patients
same,"Disease course Severe (Hospital/ICU Admission), Active Treatment Percentage",SARS-CoV-2 (COVID-19); [3],0.6%
same,"Disease course Mild, Active Treatment Number","SARS-CoV-2 (COVID-19); mild = max fever 37.7° C., 1 week, 1% methylene blue flushing/gargling/spraying + 660 nm, 240 mW, total about 360 J/cm2, 300 patients",192 patients
same,"Disease course Mild, Active Treatment Percentage","SARS-CoV-2 (COVID-19); mild = max fever 37.7° C., 1 week, methylene blue + 660 nm irradiation, 300 patients",64%
same,"Disease course Moderate, Active Treatment Number",SARS-CoV-2 (COVID-19); [4],99 patients
same,"Disease course Moderate, Active Treatment Percentage",SARS-CoV-2 (COVID-19); [4],33%
same,"Severe course of disease (both severe categories together), active treatment group","SARS-CoV-2 (COVID-19); vs. 19% in placebo, methylene blue + 660 nm irradiation",2.6%
same,"Attenuation of disease progression (mild plus moderate course), active treatment group","SARS-CoV-2 (COVID-19); vs. 81% in placebo, methylene blue + 660 nm irradiation",97%
same,Treatment related adverse events / side effects,[1],free of any side effects; also recorded: no treatment related adverse events
